From patent US10168342B2, “Lipid probes and uses thereof” (THE SCRIPPS RESEARCH INSTITUTE, priority 2015, dated 2019)
Read-outs that look alike come from different tables or passages of the source.

Key:
[1] = target: AEA-DA lipid probe targets in Neuro2a cells (Mus musculus, UniProt Q8VDN2)
[2] = target: T1, AEA-DA lipid probe targets in Neuro2a cells (Mus musculus, UniProt Q60930); settings: Neuro2a cells, AEA-DA probe
T1 sequence (Q60930 1-295): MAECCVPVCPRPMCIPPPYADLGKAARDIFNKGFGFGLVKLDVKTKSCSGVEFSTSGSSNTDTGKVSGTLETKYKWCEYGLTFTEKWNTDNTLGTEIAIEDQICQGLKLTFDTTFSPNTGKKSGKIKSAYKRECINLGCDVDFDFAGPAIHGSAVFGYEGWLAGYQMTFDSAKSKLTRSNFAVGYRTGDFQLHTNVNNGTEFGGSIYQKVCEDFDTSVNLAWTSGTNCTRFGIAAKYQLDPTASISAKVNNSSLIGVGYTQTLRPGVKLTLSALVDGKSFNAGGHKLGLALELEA

[3] = target: T2, AEA-DA lipid probe targets in Neuro2a cells (Mus musculus, UniProt Q9CZS1)
T2 sequence (Q9CZS1 20-519): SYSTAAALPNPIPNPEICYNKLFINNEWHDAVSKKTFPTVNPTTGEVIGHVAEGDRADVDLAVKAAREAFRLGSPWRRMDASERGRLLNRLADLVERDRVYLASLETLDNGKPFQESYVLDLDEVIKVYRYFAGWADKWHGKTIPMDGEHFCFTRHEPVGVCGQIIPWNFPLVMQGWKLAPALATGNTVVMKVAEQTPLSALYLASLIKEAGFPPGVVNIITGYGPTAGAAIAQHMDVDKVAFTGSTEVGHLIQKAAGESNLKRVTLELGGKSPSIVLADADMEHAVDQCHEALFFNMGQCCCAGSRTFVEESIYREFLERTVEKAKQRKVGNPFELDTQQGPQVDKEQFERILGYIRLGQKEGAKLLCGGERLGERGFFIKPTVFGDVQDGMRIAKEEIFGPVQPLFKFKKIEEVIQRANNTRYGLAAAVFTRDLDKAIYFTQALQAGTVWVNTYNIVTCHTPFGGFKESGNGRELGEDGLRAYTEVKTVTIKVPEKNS

[4] = target: AEA-DA lipid probe targets in Neuro2a cells (Mus musculus, UniProt Q9EQK7)
[5] = target: T3, AEA-DA lipid probe targets in Neuro2a cells (Mus musculus, UniProt Q80ZW2)
T3 sequence (Q80ZW2 22-207): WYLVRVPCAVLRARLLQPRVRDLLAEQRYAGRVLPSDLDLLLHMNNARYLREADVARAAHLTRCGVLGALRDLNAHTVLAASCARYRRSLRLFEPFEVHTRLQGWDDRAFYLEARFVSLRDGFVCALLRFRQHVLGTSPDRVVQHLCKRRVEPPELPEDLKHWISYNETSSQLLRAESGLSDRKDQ

[6] = target: AEA-DA lipid probe targets in Neuro2a cells (Mus musculus, UniProt Q9Z2I0)
[7] = target: AEA-DA lipid probe targets in Neuro2a cells (Mus musculus, UniProt Q91XC9)
[8] = target: T4, AEA-DA lipid probe targets in Neuro2a cells (Mus musculus, UniProt Q9ES97)
T4 sequence (Q9ES97 1-964): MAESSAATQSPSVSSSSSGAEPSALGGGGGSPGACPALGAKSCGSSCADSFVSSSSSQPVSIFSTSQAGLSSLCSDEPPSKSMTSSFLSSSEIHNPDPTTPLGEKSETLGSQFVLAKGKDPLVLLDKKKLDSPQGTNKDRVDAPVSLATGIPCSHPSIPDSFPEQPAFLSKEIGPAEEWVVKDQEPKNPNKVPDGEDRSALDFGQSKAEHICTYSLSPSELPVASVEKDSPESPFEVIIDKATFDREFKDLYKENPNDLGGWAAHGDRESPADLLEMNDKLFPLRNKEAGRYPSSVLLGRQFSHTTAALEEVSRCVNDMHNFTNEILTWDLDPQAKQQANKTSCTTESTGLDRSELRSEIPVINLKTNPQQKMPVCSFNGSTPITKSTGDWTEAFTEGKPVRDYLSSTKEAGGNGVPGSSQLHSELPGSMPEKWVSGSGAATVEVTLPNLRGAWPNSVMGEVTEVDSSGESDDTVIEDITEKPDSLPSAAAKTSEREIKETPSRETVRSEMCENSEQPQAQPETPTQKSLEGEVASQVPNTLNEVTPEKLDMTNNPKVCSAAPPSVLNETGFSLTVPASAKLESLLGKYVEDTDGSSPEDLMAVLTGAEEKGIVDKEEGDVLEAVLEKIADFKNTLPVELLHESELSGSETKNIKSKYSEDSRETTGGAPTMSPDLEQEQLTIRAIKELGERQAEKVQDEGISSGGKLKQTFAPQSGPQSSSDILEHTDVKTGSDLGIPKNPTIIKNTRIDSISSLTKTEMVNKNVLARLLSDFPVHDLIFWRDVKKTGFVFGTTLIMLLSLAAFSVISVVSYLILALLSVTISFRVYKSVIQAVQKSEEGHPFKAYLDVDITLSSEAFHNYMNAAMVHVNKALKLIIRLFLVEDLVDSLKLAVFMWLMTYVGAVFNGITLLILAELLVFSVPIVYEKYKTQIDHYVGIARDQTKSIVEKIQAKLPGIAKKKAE

[9] = target: AEA-DA lipid probe targets in Neuro2a cells (Mus musculus, UniProt Q8VE88)
[10] = target: AEA-DA lipid probe targets in Neuro2a cells (Mus musculus, UniProt Q9EPE9)
[11] = target: AEA-DA lipid probe targets in Neuro2a cells (Mus musculus, UniProt Q64310)
[12] = target: AEA-DA lipid probe targets in Neuro2a cells (Mus musculus, UniProt Q8BK63)
AEA-DA lipid probe targets in Neuro2a cells (Mus musculus, UniProt Q8BK63), sequence (Q8BK63 whole entry): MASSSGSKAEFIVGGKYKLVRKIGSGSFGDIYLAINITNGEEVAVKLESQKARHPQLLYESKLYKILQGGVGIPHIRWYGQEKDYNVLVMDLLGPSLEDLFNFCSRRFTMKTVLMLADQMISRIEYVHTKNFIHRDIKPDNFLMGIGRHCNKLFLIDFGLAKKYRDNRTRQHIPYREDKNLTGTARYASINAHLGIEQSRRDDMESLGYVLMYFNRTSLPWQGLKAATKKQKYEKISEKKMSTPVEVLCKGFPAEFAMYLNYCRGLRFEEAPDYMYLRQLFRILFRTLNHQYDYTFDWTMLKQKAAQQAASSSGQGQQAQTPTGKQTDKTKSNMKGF

AEA-DA lipid probe targets in Neuro2a cells (Mus musculus, UniProt Q8VE88), sequence (Q8VE88 whole entry): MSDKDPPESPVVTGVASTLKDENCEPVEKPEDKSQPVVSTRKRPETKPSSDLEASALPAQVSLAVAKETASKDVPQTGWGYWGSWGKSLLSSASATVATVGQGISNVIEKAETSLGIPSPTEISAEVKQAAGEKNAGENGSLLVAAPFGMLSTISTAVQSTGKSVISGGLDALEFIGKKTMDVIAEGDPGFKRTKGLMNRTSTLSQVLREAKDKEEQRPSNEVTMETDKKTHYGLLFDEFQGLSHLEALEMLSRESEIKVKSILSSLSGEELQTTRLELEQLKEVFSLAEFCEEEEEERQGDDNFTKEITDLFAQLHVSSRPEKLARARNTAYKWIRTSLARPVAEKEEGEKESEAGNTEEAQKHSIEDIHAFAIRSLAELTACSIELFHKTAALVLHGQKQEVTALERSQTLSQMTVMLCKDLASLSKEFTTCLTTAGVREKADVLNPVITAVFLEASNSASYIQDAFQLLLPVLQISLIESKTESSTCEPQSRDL
AEA-DA lipid probe targets in Neuro2a cells (Mus musculus, UniProt Q91XC9), sequence (Q91XC9 whole entry): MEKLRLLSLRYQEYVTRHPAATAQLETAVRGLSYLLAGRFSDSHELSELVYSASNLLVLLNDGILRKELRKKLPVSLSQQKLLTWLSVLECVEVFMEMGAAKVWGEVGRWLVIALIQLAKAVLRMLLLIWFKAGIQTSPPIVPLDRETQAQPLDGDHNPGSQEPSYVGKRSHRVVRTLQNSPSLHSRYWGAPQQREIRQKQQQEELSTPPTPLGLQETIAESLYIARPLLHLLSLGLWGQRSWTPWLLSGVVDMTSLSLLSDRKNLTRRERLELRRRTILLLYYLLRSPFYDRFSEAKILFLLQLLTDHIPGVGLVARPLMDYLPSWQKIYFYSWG
AEA-DA lipid probe targets in Neuro2a cells (Mus musculus, UniProt Q9EPE9), sequence (Q9EPE9 whole entry): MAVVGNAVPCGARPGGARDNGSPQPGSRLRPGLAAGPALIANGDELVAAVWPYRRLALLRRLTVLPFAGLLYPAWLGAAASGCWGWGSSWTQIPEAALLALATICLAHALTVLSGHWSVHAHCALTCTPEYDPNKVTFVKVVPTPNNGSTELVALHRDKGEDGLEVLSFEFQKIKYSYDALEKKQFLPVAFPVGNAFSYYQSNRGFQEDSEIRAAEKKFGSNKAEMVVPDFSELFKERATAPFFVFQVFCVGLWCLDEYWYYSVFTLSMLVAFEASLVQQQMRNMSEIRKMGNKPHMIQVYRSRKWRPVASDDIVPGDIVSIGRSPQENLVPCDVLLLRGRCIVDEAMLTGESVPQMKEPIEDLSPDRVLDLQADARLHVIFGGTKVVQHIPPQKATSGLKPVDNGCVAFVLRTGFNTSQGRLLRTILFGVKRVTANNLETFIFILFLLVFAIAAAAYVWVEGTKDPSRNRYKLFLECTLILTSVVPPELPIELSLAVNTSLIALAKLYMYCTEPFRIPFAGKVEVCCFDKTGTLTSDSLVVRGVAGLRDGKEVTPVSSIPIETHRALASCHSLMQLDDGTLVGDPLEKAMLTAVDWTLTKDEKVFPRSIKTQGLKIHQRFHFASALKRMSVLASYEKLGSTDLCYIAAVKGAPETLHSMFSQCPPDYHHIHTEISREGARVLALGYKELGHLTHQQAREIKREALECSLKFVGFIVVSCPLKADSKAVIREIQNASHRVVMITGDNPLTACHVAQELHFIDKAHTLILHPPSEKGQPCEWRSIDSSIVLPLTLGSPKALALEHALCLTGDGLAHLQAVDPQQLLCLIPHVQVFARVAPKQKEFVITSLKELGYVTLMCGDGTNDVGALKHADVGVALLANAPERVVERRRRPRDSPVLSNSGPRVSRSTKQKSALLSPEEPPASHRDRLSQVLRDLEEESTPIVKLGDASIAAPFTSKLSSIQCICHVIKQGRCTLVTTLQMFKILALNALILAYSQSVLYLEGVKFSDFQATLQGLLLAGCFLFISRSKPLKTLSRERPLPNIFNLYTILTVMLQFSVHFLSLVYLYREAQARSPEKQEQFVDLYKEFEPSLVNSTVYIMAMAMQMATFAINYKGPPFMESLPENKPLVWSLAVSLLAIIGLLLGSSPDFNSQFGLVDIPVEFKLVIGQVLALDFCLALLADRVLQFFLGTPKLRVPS
AEA-DA lipid probe targets in Neuro2a cells (Mus musculus, UniProt Q9EQK7), sequence (Q9EQK7 whole entry): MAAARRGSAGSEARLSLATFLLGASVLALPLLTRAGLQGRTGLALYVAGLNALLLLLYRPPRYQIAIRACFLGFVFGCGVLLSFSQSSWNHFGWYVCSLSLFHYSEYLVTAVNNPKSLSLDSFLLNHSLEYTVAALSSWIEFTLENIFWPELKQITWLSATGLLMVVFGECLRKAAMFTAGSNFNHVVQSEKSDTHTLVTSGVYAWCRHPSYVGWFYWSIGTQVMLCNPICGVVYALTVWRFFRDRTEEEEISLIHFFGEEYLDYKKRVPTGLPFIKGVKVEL
AEA-DA lipid probe targets in Neuro2a cells (Mus musculus, UniProt Q9Z2I0), sequence (Q9Z2I0 115-738): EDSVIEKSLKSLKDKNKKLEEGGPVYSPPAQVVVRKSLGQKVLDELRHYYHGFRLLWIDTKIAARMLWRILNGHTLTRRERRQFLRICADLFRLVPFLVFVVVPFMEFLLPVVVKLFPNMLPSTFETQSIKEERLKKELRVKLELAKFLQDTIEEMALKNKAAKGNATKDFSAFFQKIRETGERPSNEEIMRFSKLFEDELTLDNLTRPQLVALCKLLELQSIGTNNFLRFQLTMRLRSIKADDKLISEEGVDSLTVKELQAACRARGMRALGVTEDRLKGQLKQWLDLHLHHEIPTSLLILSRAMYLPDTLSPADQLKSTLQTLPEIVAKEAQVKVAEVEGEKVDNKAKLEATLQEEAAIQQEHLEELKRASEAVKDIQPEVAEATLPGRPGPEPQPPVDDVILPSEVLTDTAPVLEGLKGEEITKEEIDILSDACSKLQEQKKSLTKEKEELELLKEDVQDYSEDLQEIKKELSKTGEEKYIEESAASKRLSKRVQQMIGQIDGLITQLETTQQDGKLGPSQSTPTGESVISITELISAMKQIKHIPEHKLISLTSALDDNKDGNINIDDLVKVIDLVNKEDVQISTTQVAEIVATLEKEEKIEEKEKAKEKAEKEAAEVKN
AEA-DA lipid probe targets in Neuro2a cells (Mus musculus, UniProt Q64310), sequence (Q64310 whole entry): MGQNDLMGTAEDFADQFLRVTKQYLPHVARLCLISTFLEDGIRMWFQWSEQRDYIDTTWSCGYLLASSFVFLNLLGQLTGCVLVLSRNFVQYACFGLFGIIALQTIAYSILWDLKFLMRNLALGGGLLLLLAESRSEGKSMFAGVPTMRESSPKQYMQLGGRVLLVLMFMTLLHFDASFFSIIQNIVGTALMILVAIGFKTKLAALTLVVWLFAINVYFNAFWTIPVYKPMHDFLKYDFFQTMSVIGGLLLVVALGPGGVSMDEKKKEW

CCCCC/C=C\C/C=C\C/C=C\C/C=C\CCCC(=O)NCCO [AEA, anandamide, reference compound]
SILAC ratio Atp1a1 ([1]; competitor 200 μM): 1.4 | SILAC ratio, VDAC2 (P45880) ([2]; competitor 200 μM): 1.2 | SILAC ratio, Aldh1b1 ([3]; competitor 200 μM): 2.7 | SILAC ratio Icmt ([4]; competitor 200 μM): 1.5 | SILAC ratio Them6 ([5]; competitor 200 μM): 1.9 | SILAC ratio Letm1 ([6]; competitor 200 μM): 0.6 | SILAC ratio, Pex16 ([7]; competitor 200 μM): 1.7 | SILAC ratio, Rtn3 ([8]; competitor 200 μM): 2.7 | SILAC ratio, Fam114a2 ([9]; competitor 200 μM): 1.4 | SILAC ratio Atp13a1 ([10]; competitor 200 μM): 1.4 | SILAC ratio Surf4 ([11]; competitor 200 μM): 1.4

O=C(/C=C/c1cccnc1)NCCCCC1CCN(C(=O)c2ccccc2)CC1 [FK-866, reference compound]
SILAC ratio Atp1a1 ([1]; competitor 25 μM): 1.2 | SILAC ratio, VDAC2 (P45880) ([2]; competitor 25 μM): 1.0 | SILAC ratio, Aldh1b1 ([3]; competitor 25 μM): 1.3 | SILAC ratio Csnk1a1 ([12]; competitor 25 μM): 1.5 | SILAC ratio Icmt ([4]; competitor 25 μM): 1.3 | SILAC ratio Them6 ([5]; competitor 25 μM): 1.0 | SILAC ratio Letm1 ([6]; competitor 25 μM): 1.5 | SILAC ratio, Pex16 ([7]; competitor 25 μM): 1.1 | SILAC ratio, Rtn3 ([8]; competitor 25 μM): 1.1 | SILAC ratio, Fam114a2 ([9]; competitor 25 μM): 1.0 | SILAC ratio Atp13a1 ([10]; competitor 25 μM): 1.1 | SILAC ratio Surf4 ([11]; competitor 25 μM): 1.2

CN1CCN(C(=O)c2c(-c3ccccc3)c3cc([N+](=O)[O-])ccc3n2C)CC1 [KML110, (1-Methyl-5-nitro-3-phenyl-1H-indol-2-yl)(4-methylpiperazin-1-yl)methanone]
SILAC ratio Atp1a1 ([1]; competitor 25 μM): 1.2 | SILAC ratio, Aldh1b1 ([3]; competitor 25 μM): 1.7 | SILAC ratio Csnk1a1 ([12]; competitor 25 μM): 1.5 | SILAC ratio Icmt ([4]; competitor 25 μM): 1.0 | SILAC ratio Them6 ([5]; competitor 25 μM): 1.3 | SILAC ratio Letm1 ([6]; competitor 25 μM): 1.1 | SILAC ratio, Pex16 ([7]; competitor 25 μM): 1.4 | SILAC ratio, Rtn3 ([8]; competitor 25 μM): 1.3 | SILAC ratio, Fam114a2 ([9]; competitor 25 μM): 2.2 | SILAC ratio Atp13a1 ([10]; competitor 25 μM): 1.7 | SILAC ratio Surf4 ([11]; competitor 25 μM): 1.4

CN1CCN(C(=O)c2[nH]c3ccc([N+](=O)[O-])cc3c2-c2ccccc2)CC1 [MJN228, (4-Methylpiperazin-1-yl)(5-nitro-3-phenyl-1H-indol-2-yl)methanone]
SILAC ratio Atp1a1 ([1]; competitor 10 μM): 1.4 | SILAC ratio Atp1a1 ([1]; competitor 25 μM): 1.4 | SILAC ratio Atp1a1 ([1]; competitor 50 μM): 1.1 | SILAC ratio Atp1a1 ([1]; competitor 100 μM): 1.2 | SILAC ratio, VDAC2 (P45880) ([2]; competitor 25 μM): 1.0 | SILAC ratio, Aldh1b1 ([3]; competitor 10 μM): 1.2 | SILAC ratio, Aldh1b1 ([3]; competitor 25 μM): 1.6 | SILAC ratio, Aldh1b1 ([3]; competitor 50 μM): 2.0 | SILAC ratio, Aldh1b1 ([3]; competitor 100 μM): 2.6 | SILAC ratio Csnk1a1 ([12]; competitor 25 μM): 1.4 | SILAC ratio Csnk1a1 ([12]; competitor 100 μM): 1.3 | SILAC ratio Icmt ([4]; competitor 10 μM): 0.9 | SILAC ratio Icmt ([4]; competitor 25 μM): 0.9 | SILAC ratio Icmt ([4]; competitor 50 μM): 0.6 | SILAC ratio Icmt ([4]; competitor 100 μM): 0.5 | SILAC ratio Them6 ([5]; competitor 10 μM): 1.2 | SILAC ratio Them6 ([5]; competitor 25 μM): 1.3 | SILAC ratio Them6 ([5]; competitor 100 μM): 1.3 | SILAC ratio Letm1 ([6]; competitor 10 μM): 1.3 | SILAC ratio Letm1 ([6]; competitor 25 μM): 1.5 | SILAC ratio Letm1 ([6]; competitor 50 μM): 1.2 | SILAC ratio Letm1 ([6]; competitor 100 μM): 1.1 | SILAC ratio, Pex16 ([7]; competitor 10 μM): 0.9 | SILAC ratio, Pex16 ([7]; competitor 25 μM): 1.5 | SILAC ratio, Pex16 ([7]; competitor 50 μM): 2.3 | SILAC ratio, Pex16 ([7]; competitor 100 μM): 2.2 | SILAC ratio, Rtn3 ([8]; competitor 10 μM): 1.2 | SILAC ratio, Rtn3 ([8]; competitor 25 μM): 1.4 | SILAC ratio, Rtn3 ([8]; competitor 50 μM): 1.4 | SILAC ratio, Rtn3 ([8]; competitor 100 μM): 1.7 | SILAC ratio, Fam114a2 ([9]; competitor 10 μM): 1.6 | SILAC ratio, Fam114a2 ([9]; competitor 25 μM): 3.5 | SILAC ratio, Fam114a2 ([9]; competitor 50 μM): 4.1 | SILAC ratio, Fam114a2 ([9]; competitor 100 μM): 7.6 | SILAC ratio Atp13a1 ([10]; competitor 10 μM): 1.3 | SILAC ratio Atp13a1 ([10]; competitor 25 μM): 1.7 | SILAC ratio Atp13a1 ([10]; competitor 50 μM): 2.0 | SILAC ratio Atp13a1 ([10]; competitor 100 μM): 2.2 | SILAC ratio Surf4 ([11]; competitor 10 μM): 1.3 | SILAC ratio Surf4 ([11]; competitor 25 μM): 1.4 | SILAC ratio Surf4 ([11]; competitor 50 μM): 1.7 | SILAC ratio Surf4 ([11]; competitor 100 μM): 2.0

C=CCN(C)CCCCCCOc1ccc(C(=O)c2ccc(Br)cc2)c(F)c1 [Ro 48-8071, reference compound]
SILAC ratio Atp1a1 ([1]; competitor 25 μM): 1.0 | SILAC ratio, VDAC2 (P45880) ([2]; competitor 25 μM): 1.0 | SILAC ratio, Aldh1b1 ([3]; competitor 25 μM): 1.6 | SILAC ratio Csnk1a1 ([12]; competitor 25 μM): 0.9 | SILAC ratio Icmt ([4]; competitor 25 μM): 1.6 | SILAC ratio Them6 ([5]; competitor 25 μM): 1.0 | SILAC ratio Letm1 ([6]; competitor 25 μM): 1.3 | SILAC ratio, Pex16 ([7]; competitor 25 μM): 1.3 | SILAC ratio, Rtn3 ([8]; competitor 25 μM): 1.2 | SILAC ratio, Fam114a2 ([9]; competitor 25 μM): 1.6 | SILAC ratio Atp13a1 ([10]; competitor 25 μM): 1.2 | SILAC ratio Surf4 ([11]; competitor 25 μM): 1.1
